Earlier results, collected in publication PMC7180456, “Multitarget Anticancer Agents Based on Histone Deacetylase and Protein Kinase CK2 Inhibitors” (Molecules, 2020).

Experiments:
HL-60/adr line = system: HL-60/adr line; set-up: method as in PMID 17904109; conditions: cited from earlier work
HL-60/vinc line = system: HL-60/vinc line; set-up: method as in PMID 17904109; conditions: cited from earlier work
HDAC = system: HDAC; set-up: method as in PMID 29733427; conditions: Figure 2; read-out: IC50 of FDA-approved HDAC inhibitors; cited from earlier work
CK2 = conditions: Figure 3; read-out: CK2 IC50 of previously described dual inhibitors; cited from earlier work
HDAC1 = system: HDAC1; set-up: method as in doi:10.1039/C6RA09717K; conditions: Figure 3; read-out: HDAC1 IC50 of previously described dual inhibitors; cited from earlier work
two mammalian cell lines = system: two mammalian cell lines; set-up: method as in doi:10.1039/C6RA09717K; conditions: cited from earlier work
HDAC-6 = conditions: Figure 4; read-out: Ki, HDAC-6 inhibitor; cited from earlier work

| SMILES | IC50 (HDAC) | IC50 (CK2) | IC50 (HDAC1) | also measured |
| --- | --- | --- | --- | --- |
| COc1cccc2c1C(=O)c1c(O)c3c(c(O)c1C2=O)C[C@@](O)(C(=O)CO)C[C@@H]3O[C@H]1C[C@H](N)[C@H](O)[C@H](C)O1 [doxorubicin] |  |  |  | resistance of the MDR cell model to the drug (HL-60/adr line): 80 fold; resistance of the MDR cell model to the drug (HL-60/vinc line): 140 fold |
| C/C=C1\NC(=O)[C@H]2CSSCC/C=C/[C@H](CC(=O)N[C@H](C(C)C)C(=O)N2)OC(=O)[C@H](C(C)C)NC1=O [Romidepsin] | 36 nM |  |  |  |
| O=C(CCn1cc(CCn2nc3c(Br)c(Br)c(Br)c(Br)c3n2)nn1)NO [Compound 2] |  | 50000 nM | 2200 nM | cytotoxic activity LC50 (two mammalian cell lines): low micromolar |
| Cc1[nH]c2ccccc2c1CCNCc1ccc(/C=C/C(=O)NO)cc1 [Panobinostat] | 5 to 20 nM |  |  |  |
| CN1C(=O)C2Cc3c(c4ccccc4n3Cc3ccc(C(=O)NO)cc3)C(C2)C1=O (stereo not shown) [Marbostat-100] |  |  |  | Ki (HDAC-6): 0.7 nM |
| O=C(CCn1cc(CCn2nnc3c(Br)c(Br)c(Br)c(Br)c32)nn1)NO [Compound 1] |  | 5400 nM | 5000 nM |  |
